We go through twelve compounds from PubChem BioAssay (NCI).

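1) Cells in 96-well plates. 2) Compound, 48 h, 5 concentrations. 3) Linear interpolation between surrounding doses. 4) Unreached endpoint = highest concentration. TGI: concentration producing complete growth inhibition.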

Test systems include OVCAR-3 ovarian; NCI-H522 lung; COLO 205 colon; SK-MEL-2 melanoma; HS 578T breast; HL-60(TB) leukemia; MDA-MB-231 breast; IGROV1 ovarian; SK-MEL-5 melanoma; UO-31 renal.
What all share (assay): NCI anticancer screen, dose series, 48 h

As for `CCOC(=O)Cc1cc(=O)[nH]c(-n2[nH]c(C)c(CCO)c2=O)n1`, the TGI with OVCAR-3 ovarian, with NCI-H522 lung, with COLO 205 colon, in the assay with SK-MEL-2 melanoma, in the assay with HS 578T breast and in the assay with HL-60(TB) leukemia was more than 100 µM in each case. For the same compound, the TGI with MDA-MB-231 breast, in the assay with IGROV1 ovarian, in the assay on SK-MEL-5 melanoma and in the assay on UO-31 renal was more than 100 µM in each case.
In the case of `COC(=O)/C=C\C(C#N)(C#N)N=Cc1ccc(Br)cc1`, the TGI in the assay on OVCAR-3 ovarian was determined as 24.9 µM; in the assay with NCI-H522 lung, 2.95 µM; with COLO 205 colon, 9.55 µM; in the assay with SK-MEL-2 melanoma it was 44 µM; in the assay on HS 578T breast, 49.7 µM; in the assay on HL-60(TB) leukemia, 1.27 µM. Further, the TGI with MDA-MB-231 breast turned out to be 8.48 µM; in the assay with IGROV1 ovarian, 37 µM; in the assay on SK-MEL-5 melanoma, 3.92 µM; in the assay with UO-31 renal it was 15.8 µM.
As for `CCOC(=O)C1=C(C)N(Cc2ccccc2)C2(O)C(OC)CC(=O)C3C(=O)N(c4ccccc4)C(=O)C132` (stereo not given), the TGI is more than 100 µM with OVCAR-3 ovarian; 26.3 µM with NCI-H522 lung; more than 100 µM in the assay on COLO 205 colon; 59.1 µM in the assay on SK-MEL-2 melanoma; more than 100 µM with HS 578T breast; more than 100 µM in the assay with HL-60(TB) leukemia. Also, the TGI with MDA-MB-231 breast was 77.2 µM; with IGROV1 ovarian, 37.6 µM; in the assay on SK-MEL-5 melanoma it was 37.1 µM; in the assay with UO-31 renal it was 33 µM.
Take `Nc1c(C(=O)O)nnc2cc(Cl)ccc12`: the TGI in the assay on OVCAR-3 ovarian, in the assay with NCI-H522 lung, with COLO 205 colon, in the assay on SK-MEL-2 melanoma, in the assay on HS 578T breast and in the assay with HL-60(TB) leukemia was more than 100 µM throughout. The TGI in the assay on MDA-MB-231 breast, in the assay with IGROV1 ovarian, with SK-MEL-5 melanoma and with UO-31 renal was more than 100 µM throughout.
As for `CCC(C)N1CN(c2ccccc2)C2(CCN(CCCC3(c4ccc(F)cc4)OCCO3)CC2)C1=O` (stereo not given), the TGI stood at 29.8 µM in the assay with OVCAR-3 ovarian; 10.2 µM in the assay on NCI-H522 lung; 16.8 µM in the assay on COLO 205 colon; 28.7 µM in the assay on SK-MEL-2 melanoma; 14.2 µM in the assay on HS 578T breast; 23 µM in the assay on HL-60(TB) leukemia. Moreover, the TGI with MDA-MB-231 breast amounted to 26.2 µM; with IGROV1 ovarian, 30.7 µM; in the assay on SK-MEL-5 melanoma, 8.24 µM; in the assay on UO-31 renal, 10.7 µM.
Consider `COc1ccc(/C=C(/c2ccc(OC)cc2)c2c(Cl)cc(Cl)c(/C(=C\c3ccc(OC)cc3)c3ccc(OC)cc3)c2N=Nc2ccccc2)cc1`, for which the TGI with OVCAR-3 ovarian, in the assay with NCI-H522 lung, with COLO 205 colon, in the assay with SK-MEL-2 melanoma, in the assay on HS 578T breast and with HL-60(TB) leukemia was more than 100 µM each time. Further, the TGI in the assay on MDA-MB-231 breast, in the assay on IGROV1 ovarian, in the assay on SK-MEL-5 melanoma and with UO-31 renal was more than 100 µM throughout.
Turning to `O=C(O)C1CSC2(CCCN(Cc3ccccc3)C2)N1` (stereo not given), the TGI with OVCAR-3 ovarian, in the assay on NCI-H522 lung, in the assay with COLO 205 colon, with SK-MEL-2 melanoma, in the assay with HS 578T breast and with HL-60(TB) leukemia was more than 100 µM each time. In addition, the TGI in the assay with MDA-MB-231 breast, in the assay on IGROV1 ovarian, with SK-MEL-5 melanoma and in the assay on UO-31 renal was more than 100 µM each time.
As for `O=C(CN1CCN(c2ccccn2)CC1)N1CCCn2c1nc1ccccc1c2=O`, the TGI in the assay with OVCAR-3 ovarian, in the assay on NCI-H522 lung, in the assay with COLO 205 colon, with SK-MEL-2 melanoma, with HS 578T breast and in the assay on HL-60(TB) leukemia was more than 100 µM each time. Further, the TGI in the assay on MDA-MB-231 breast, in the assay on IGROV1 ovarian, with SK-MEL-5 melanoma and in the assay with UO-31 renal was more than 100 µM each time.
Regarding `CC1CN=C(c2ccc(CN3CCC(CCCC4CCN(Cc5ccc(C6=NCC(C)N6)cc5)CC4)CC3)cc2)N1` (stereo not given), the TGI in the assay with OVCAR-3 ovarian is more than 100 µM; in the assay with NCI-H522 lung, 70.3 µM; in the assay on COLO 205 colon it was 33 µM; in the assay with SK-MEL-2 melanoma, 52.3 µM; with HS 578T breast it was more than 100 µM; in the assay with HL-60(TB) leukemia it was more than 100 µM. In addition, the TGI in the assay with MDA-MB-231 breast is 59.7 µM; with IGROV1 ovarian, more than 100 µM; in the assay with SK-MEL-5 melanoma it was more than 100 µM; in the assay with UO-31 renal, more than 100 µM.
As to `Cc1cc(OCc2nnc3n2N=C(c2cc(F)c(Cl)cc2Cl)/C(=C/c2ccc(-c4ccc(Cl)cc4)o2)S3)ccc1Cl`, the TGI with OVCAR-3 ovarian, in the assay with NCI-H522 lung, with COLO 205 colon, in the assay with SK-MEL-2 melanoma, in the assay on HS 578T breast and with HL-60(TB) leukemia was more than 50 µM throughout. For the same compound, the TGI in the assay on MDA-MB-231 breast, with IGROV1 ovarian, with SK-MEL-5 melanoma and in the assay on UO-31 renal was more than 50 µM in each case.
As to `CC(C)(CO)CNc1cc(Cl)nc(N)n1`, the TGI in the assay on OVCAR-3 ovarian, in the assay with NCI-H522 lung, in the assay with COLO 205 colon, in the assay on SK-MEL-2 melanoma, in the assay on HS 578T breast and in the assay on HL-60(TB) leukemia was more than 100 µM in each case. Besides, the TGI in the assay on MDA-MB-231 breast, in the assay on IGROV1 ovarian, in the assay on SK-MEL-5 melanoma and in the assay on UO-31 renal was more than 100 µM throughout.
For `COc1ccc(/N=N/C(=NNC(=O)c2ccc(C)cc2)c2ccc(N(C)C)cc2)cc1`, the TGI with OVCAR-3 ovarian is more than 79.4 µM; with NCI-H522 lung, 97.9 µM; in the assay on COLO 205 colon, more than 85.8 µM; in the assay with SK-MEL-2 melanoma, more than 100 µM; in the assay on HS 578T breast, more than 100 µM; in the assay with HL-60(TB) leukemia, more than 67.7 µM. The TGI was more than 100 µM in the assay on MDA-MB-231 breast, more than 100 µM in the assay with IGROV1 ovarian, more than 95.3 µM with SK-MEL-5 melanoma and more than 100 µM in the assay with UO-31 renal.
